Source: patent publication US6001383A (priority 1994, dated 1999)
Read-outs that look alike come from different tables or passages of the source.

Tests used:
[1] = system: Rhyzopertha dominica (F.), strain Rd2; settings: R. dominica adults, cited from earlier work
[2] = cited from earlier work
[3] = cited from earlier work; for carcinogenicity: Sax and Lewis, 1989; for TLV value: worker safety limit
Leucadendron = test: Phytotoxicity to cut flowers, Leucadendron; settings: methyl bromide 30 mg L^-1, 2 h; control 7
Protocol: (§1) Field Carnations and Leucadendrons were purchased from a local wholesale florist. […]
(§2) After 2 hours the drums were opened and allowed to air in a fume hood, the flowers were removed from the drums, the stems trimmed and the bunches placed in water and left in the fume hood to air for 2 hours then placed in a cool room.
(§3) Assessment of the phytoxicity of the fumigants was done after one week of cold storage.
(§4) The phytoxicity assessments were made by a panel of six people who were asked independently to give a value out of 10 (Where 10 is excellent and 1 is unsaleable) for each flower and each treatment. The figures given below are the averaged results.

Carnation = test: Phytotoxicity to cut flowers, Carnation; settings: methyl bromide 30 mg L^-1, 2 h; control 5
Protocol: as §1, §2, §3, §4

Cryptotermes brevis = test: Toxicity to dry wood termites, C. brevis; assay type: in vivo; settings: 24 h, 30° C., survival after one week
Protocol: (§5) Termites were obtained from cultures kept at 30° C. and 80% RH. Termites were transferred to 120 mL bottles fitted with Mininert valved lids and a 325 mg chip of plywood and sealed whilst at 80% RH and 30° C. All fumigations were performed in duplicate with a sample size of 10-11 insects for C. brevis, 25 insects for C. cyanocephalos and 22 insects for C. domesticus. An appropriate volume of air was removed from the sample bottles prior to the addition of fumigants. Dosed samples were analysed on a gas chromatograph to ensure concentrations were as predicted. A second set of gas chromatograph readings was taken prior to airing to ensure fumigant concentrations had remained static throughout the exposure period. […]
(§6) C2 N2 concentrations were measured on a Varian 3300 Gas Chromatograph equipped with a Thermionic Specific Detactor after separation on a DBwax column of internal diameter 0.53 mm. Phosphine concentrations were measured on a Shimadzu 6AM equipped with a Flame Photometric Detector. Methyl bromide concentrations were measured on a Shimadzu 6AM equipped with a Flame Ionisation Detector after separation on a GasChromQ with 20% OV-IO1 column.
(§7) After 24 hours exposure, termites and wood chips were transferred to plastic Petri dishes each containing a large piece of plywood. Initial and one week survivals were recorded.

[4] = Sorption and desorption on wheat, comparative; settings: 25 g wheat; C2 N2 10 mg/L, phosphine 2 mg/L, methyl bromide 32 mg/L
Protocol: Samples of wheat (25 g) were placed in 250 mL conical flasks of known volume. The flasks were stoppered with a gas tight stopper containing a rubber septum (injection port). Flasks were dosed with C2 N2 (10 mg/L), phosphine (2 mg/L) or methyl bromide (32 mg/L). After 24 h the headspace concentrations were determined by gas chromatography. Each flask was then opened and the wheat sample aired briefly by pouring the wheat from one container to another and then the remaining sorbed fumigant was estimated by grinding the wheat sample in a gas-tight Waring blender canister fitted was a sampling port and determining the released fumigant by head space analysis.

Cryptotermes domesticus = test: Toxicity to dry wood termites, C. domesticus; assay type: in vivo; settings: 24 h, 30° C., survival after one week
Protocol: as §5, §6, §7

[5] = system: Cryptotermes cyanocephalos; test: Toxicity to dry wood termites, C. cyanocephalos; assay type: in vivo; settings: 24 h, 30° C., survival after one week
Protocol: as §5, §6, §7

In the case of S=C=S [carbon disulphide], the “CT product for control of adults” value ([1]; Monro, 1967) is given as 294.0 mghL^-1.
For O=C=S [carbonyl sulphide], the “CT product for control of adults” value ([1]; Desmarchelier 1994) is listed as 68.7 mghL^-1.
In the case of ClCCCl [ethylene dichloride], the “CT product for control of adults” value ([1]; Monro, 1967) is given as 636.0 mghL^-1.
For C1CO1 [ethylene oxide], the “solubility in water” value [2] is given as “poorly soluble in water”, the carcinogenicity [3] is given as “suspect carcinogen” and the TLV value [3] is given as 0.1 ppm.
In the case of C=O [formaldehyde], the carcinogenicity [3] is given as “suspect carcinogen” and the TLV value [3] is given as 1 ppm.
In the case of CBr [methyl bromide], the “phytotoxicity score (10 excellent, 1 unsaleable)” value (Leucadendron) is listed as 6, the “phytotoxicity score (10 excellent, 1 unsaleable)” value (Carnation) is listed as 3 and the “CT product for control of adults” value ([1]; Monro, 1967) is listed as 33.0 mghL^-1. The “applied concentration giving 100% mortality” value (Cryptotermes brevis) was 1.74 mgL^-1, the “initial fumigant remaining in headspace after 24 h” value [4] was 69% and the “applied concentration giving 100% mortality” value (Cryptotermes domesticus) was 4.35 mgL^-1. For the same compound, the “applied concentration giving 100% mortality” value [5] was 3.47 mgL^-1.
In the case of P [phosphine], the “applied concentration giving 100% mortality” value (Cryptotermes brevis) was 0.43 mgL^-1, the “initial fumigant remaining in headspace after 24 h” value [4] was 91% and the “applied concentration giving 100% mortality” value (Cryptotermes domesticus) was 0.22 mgL^-1. The “applied concentration giving 100% mortality” value [5] was 0.43 mgL^-1.
